From patent US20240368125A1, “NOVEL PYRAZINYL-TRIAZOLE COMPOUNDS AS PESTICIDES” (Bayer Aktiengesellschaft, priority 2021, published 2024)

Assays:
Type in all cases: in vivo
[1] = tested on: fall armyworm larvae (Spodoptera frugiperda); experiment: Spodoptera frugiperda spray test (SPODFR); settings: in Zea mays, 168 h
Protocol: Spodoptera frugiperda—Spray Test
Solvent: 78.0 parts by weight acetone • 1.5 parts by weight dimethylformamide
(§1) Emulsifier: alkylarylpolyglycol ether
(§2) To produce a suitable preparation of active compound, 1 part by weight of active compound is mixed with the stated amount of solvents and is diluted with water, containing an emulsifier concentration of 1000 ppm, to the desired concentration. Further test concentrations are prepared by dilution with emulsifier containing water.
Maize (Zea mays) leaf sections are sprayed with a preparation of the active ingredient of the desired concentration. Once dry, the leaf sections are infested with fall armyworm larvae (Spodoptera frugiperda).
After 7 days mortality in % is determined. 100% means all caterpillars have been killed and 0% means none of the caterpillars have been killed.
Spodoptera frugiperda—Spray Test (SPODFR
After the specified period of time, mortality in % is determined. 100% means all caterpillars have been killed and 0% means none of the caterpillars have been killed.

[2] = tested on: Rhipicephalus (Boophilus) microplus larvae (strain Parkhurst, resistant against synthetic pyrethroids); experiment: Rhipicephalus (Boophilus) microplus in-vitro contact test, larval cattle tick; settings: 1 μg/cm^2 (=100 g/ha), after 48 hours; for pest or weed control at 1 µg/cm2: Rhipicephalus microplus, read-out: efficacy (larvae dead or moribund)
Protocol: Rhipicephalus (Boophilus) Microplus—In-Vitro Contact Tests Larval Cattle Tick (Strain Parkhurst, Resistant Against Synthetic Pyrethroids
(§3) 9 mg compound is solved in 1 mL acetone and diluted with acetone to the desired concentration. 250 μL of the test solution is filled in 25 mL glass test tubes and homogeneously distributed on the inner walls by rotation and tilting on a shaking device (2 h at 30 rpm). With a compound concentration of 900 ppm, an inner surface of 44.7 cm^2 and a homogeneous distribution, a dose of 5 μg/cm^2 is achieved.
After the solvent has evaporated, each test tube is filled with 20-50 cattle tick larvae (Rhipicephalus microplus), closed with a perforated lid and incubated in a horizontal position at 85% relative humidity and 27° C. in an incubator. After 48 hours efficacy is determined. The larvae are patted on the ground of the tubes and negative geotactic behavior is recorded.

[3] = tested on: adult brown dog ticks (Rhipicephalus sanguineus); experiment: Rhipicephalus sanguineus in-vitro contact test, adult brown dog ticks; settings: 1 μg/cm^2 (=100 g/ha), after 48 hours; for pest or weed control at 1 µg/cm2, 100 g/ha: Rhipicephalus sanguineus, read-out: efficacy (ticks dead or moribund)
Protocol: Rhipicephalus sanguineus—In-Vitro Contact Tests with Adult Brown Dog Ticks
as §3
(§4) After the solvent has evaporated, each test tube is filled with 5-10 adult brown dog ticks (Rhipicephalus sanguineus), closed with a perforated lid and incubated in a lying position at room temperature and relative humidity. After 48 hours efficacy is determined. The ticks are patted on the ground of the tubes and are incubated on a heating plate at 45-50° C. for at most 5 minutes. Immotile or uncoordinated moving ticks, which are not able to escape the heat by climbing upwards, are marked as dead or moribund.
An efficacy of 100% means all ticks are dead or moribund; 0% means no ticks are dead or moribund.

[4] = tested on: larvae of the banded cucumber beetle (Diabrotica balteata); experiment: Diabrotica balteata spray test; settings: 100 g/ha (=32 μg/well), wheat seeds, after 7 days
Protocol: Diabrotica balteata—Spray Test
Solvent: 78.0 parts by weight of acetone • • 1.5 parts by weight of dimethylformamide
as §1
as §2, with “solvent,” for “solvents”, “and the concentrate” for “and”
Soaked wheat seeds (Triticum aestivum) are placed in a multiple well plate filled with agar and some water and are incubated for 1 day to germinate (5 seeds per well). The germinated wheat seeds are sprayed with a test solution containing the desired concentration of the active ingredient. Afterwards each unit is infected with 10-20 larvae of the banded cucumber beetle (Diabrotica balteata).
After 7 days efficacy in % is determined. 100% means all the seedlings have grown up like in the untreated, uninfected control; 0% means none of the seedlings have grown.

[5] = tested on: adult cat fleas (Ctenocephalides felis); experiment: Ctenocephalides felis in-vitro contact test, adult cat flea; settings: 1 μg/cm^2 (=100 g/ha), after 48 hours
Protocol: Ctenocephalides Felis—In-Vitro Contact Tests Adult Cat Flea
as §3
as §4, with “cat fleas (Ctenocephalides felis),” for “brown dog ticks (Rhipicephalus sanguineus),”, “fleas” for “ticks”, “fleas,” for “ticks,”
An efficacy of 100% means all fleas are dead or moribund; 0% means no fleas are dead or moribund.

SMILES	efficacy (seedlings grown) [4]	efficacy (larvae dead or moribund) [2]	other results
CCNC(=O)c1cnc(-n2nc(C)nc2[C@H](C)NC(=O)c2cc(C(F)(F)F)cc(C(F)(F)F)c2)cn1 [Example I-013]			mortality at 100 g/ha [1]: 100%; pest or weed control at 1 µg/cm2 [2]: 100%; pest or weed control at 1 µg/cm2, 100 g/ha [3]: 100%
C[C@H](NC(=O)c1cc(OC(F)(F)F)cc(OC(F)(F)F)c1)c1ncnn1-c1cnc(C(=O)NC2CC2)cn1 [Example I-024]	100%	100%	efficacy (ticks dead or moribund) [3]: 100%
C[C@H](NC(=O)c1cc(OC(F)(F)F)cc(OC(F)(F)F)c1)c1ncnn1-c1cnc(C(=O)N(C)C)cn1 [Example I-025]	100%	100%	efficacy (fleas dead or moribund) [5]: 100%; efficacy (ticks dead or moribund) [3]: 100%
C[C@H](NC(=O)c1cc(OC(F)(F)F)cc(OC(F)(F)F)c1)c1nc(C2CC2)nn1-c1cnc(C(=O)N(C)C)cn1 [Example I-027]			mortality at 100 g/ha [1]: 83%; pest or weed control at 1 µg/cm2 [2]: 100%
C[C@H](NC(=O)c1cc(OC(F)(F)F)cc(OC(F)(F)F)c1)c1ncnn1-c1cnc(C(N)=O)cn1 [Example I-029]			pest or weed control at 1 µg/cm2 ([5]; Ctenocephalides felis, read-out: efficacy (fleas dead or moribund)): 100%; mortality at 100 g/ha [1]: 100%; pest or weed control at 1 µg/cm2 [2]: 100%; pest or weed control at 1 µg/cm2, 100 g/ha [3]: 100%
CCNC(=O)c1cnc(-n2nc(C)nc2[C@H](C)NC(=O)c2cc(OC(F)(F)F)cc(OC(F)(F)F)c2)cn1 [Example I-035]			mortality at 100 g/ha [1]: 100%; pest or weed control at 1 µg/cm2 [2]: 100%
Cc1nc([C@H](C)NC(=O)c2cc(OC(F)(F)F)cc(OC(F)(F)F)c2)n(-c2cnc(C(=O)N(C)C)cn2)n1 [Example I-037]	100%	100%	efficacy (fleas dead or moribund) [5]: 100%; efficacy (ticks dead or moribund) [3]: 100%
CCN(C)C(=O)c1cnc(-n2nc(C)nc2[C@H](C)NC(=O)c2cc(OC(F)(F)F)cc(OC(F)(F)F)c2)cn1 [Example I-038]	100%	100%	efficacy (fleas dead or moribund) [5]: 100%; efficacy (ticks dead or moribund) [3]: 100%
Cc1nc([C@H](C)NC(=O)c2cc(OC(F)(F)F)cc(S(C)(=O)=O)c2)n(-c2cnc(C(=O)N(C)C3CC3)cn2)n1 [Example I-040]		100%	efficacy (fleas dead or moribund) [5]: 100%; efficacy (ticks dead or moribund) [3]: 100%
CNC(=O)c1cnc(-n2nc(C)nc2[C@H](C)NC(=O)c2cc(OC(F)(F)F)cc(C3CC3)c2)cn1 [Example I-045]	100%	100%	efficacy (fleas dead or moribund) [5]: 100%; efficacy (ticks dead or moribund) [3]: 100%
Cc1nc([C@H](C)NC(=O)c2cc(OC(F)(F)F)cc(C3CC3)c2)n(-c2cnc(C(N)=O)cn2)n1 [Example I-046]	100%	100%	
Cc1nc([C@H](C)NC(=O)c2cc(OC(F)(F)F)cc(C3(C)CC3)c2)n(-c2cnc(C(=O)N(C)C)cn2)n1 [Example I-053]		100%	efficacy (fleas dead or moribund) [5]: 80%; efficacy (ticks dead or moribund) [3]: 100%
CNC(=O)c1cnc(-n2nc(C)nc2[C@H](C)NC(=O)c2cc(OC(F)(F)F)cc(C3(C#N)CC3)c2)cn1 [Example I-054]	100%		
Cc1nc([C@H](C)NC(=O)c2cc(OC(F)(F)F)cc(C3(C#N)CC3)c2)n(-c2cnc(C(=O)N(C)C)cn2)n1 [Example I-055]		100%	efficacy (fleas dead or moribund) [5]: 100%; efficacy (ticks dead or moribund) [3]: 80%
C[C@H](NC(=O)c1cc(C(F)(F)F)cc(C(F)(F)F)c1)c1nc(C2CC2)nn1-c1cnc(C(=O)NC2CC2)cn1 [Example I-056]	100%	100%	
C[C@H](NC(=O)c1cc(C(F)(F)F)cc(C(F)(F)F)c1)c1nc(C2CC2)nn1-c1cnc(C(N)=O)cn1 [Example I-057]	100%		

SMILES	efficacy (seedlings grown) [4]	efficacy (larvae dead or moribund) [2]	other results
C[C@H](NC(=O)c1cc(C(F)(F)F)cc(C(F)(F)F)c1)c1nc(C2CC2)nn1-c1cnc(C(=O)N(C)C2CC2)cn1 [Example I-058]	100%		
C[C@H](NC(=O)c1cc(OC(F)(F)F)cc(OC(F)(F)F)c1)c1nc(C2CC2)nn1-c1cnc(C(N)=O)cn1 [Example I-062]	100%	100%	
C[C@H](NC(=O)c1cc(Br)cc(C(C)(C)F)c1)c1ncnn1-c1cnc(C(N)=O)cn1 [Example I-063]	100%		
C[C@H](NC(=O)c1cc(OC(F)F)cc(OC(F)F)c1)c1nc(C2CC2)nn1-c1cnc(C(N)=O)cn1 [Example I-070]	100%		
C[C@H](NC(=O)c1cc(Cl)cc(S(F)(F)(F)(F)F)c1)c1nc(C2CC2)nn1-c1cnc(C(N)=O)cn1 [Example I-074]	80%		
C[C@H](NC(=O)c1cc(Br)cc(S(F)(F)(F)(F)F)c1)c1nc(C2CC2)nn1-c1cnc(C(N)=O)cn1 [Example I-075]	100%		
C[C@H](NC(=O)c1cc(OC(F)(F)F)cc(S(C)(=O)=O)c1)c1ncnn1-c1cnc(C(=O)NCC#N)cn1 [Example I-086]	100%		
Cc1nc([C@H](C)NC(=O)c2cc(OC(F)(F)F)cc(S(C)(=O)=O)c2)n(-c2cnc(C(=O)NCC#N)cn2)n1 [Example I-087]	100%		
C[C@H](NC(=O)c1cc(Cl)cc(S(C)(=O)=O)c1)c1ncnn1-c1cnc(C(=O)NCC#N)cn1 [Example I-088]	100%		
C[C@H](NC(=O)c1cc(OC(F)F)cc(OC(F)F)c1)c1ncnn1-c1cnc(C(=O)NCC#N)cn1 [Example I-089]	100%		
C[C@H](NC(=O)c1cc(OC(F)(F)F)cc(S(C)(=O)=O)c1)c1nc(C2CC2)nn1-c1cnc(C(N)=O)cn1 [Example I-095]	100%		
C[C@H](NC(=O)c1cc(OC(F)(F)C(F)F)cc(S(C)(=O)=O)c1)c1ncnn1-c1cnc(C(=O)NCC#N)cn1 [Example I-096]	100%		
CNC(=O)c1cnc(-n2ncnc2[C@H](C)NC(=O)c2cc(Cl)cc(S(C)(=O)=O)c2)cn1 [Example I-098]		100%	
Cc1nc([C@H](C)NC(=O)c2cc(OC(F)(F)F)cc(OC(F)(F)F)c2)n(-c2cnc(C(=O)N(C)CC#N)cn2)n1 [Example I-101]	100%		
C[C@H](NC(=O)c1cc(OC(F)(F)F)cc(S(C)(=O)=O)c1)c1ncnn1-c1cnc(C(=O)N(C)CC#N)cn1 [Example I-104]	100%		
C[C@H](NC(=O)c1cc(OC(F)(F)F)cc(OC(F)(F)F)c1)c1ncnn1-c1cnc(C(=O)N(C)CC#N)cn1 [Example I-105]	100%		
